From patent US7173021B2, “Synthesis of temozolomide esters as potent anticancer pro-drugs for topical and transdermal applications in treatments of cancers” (Tianjin North Pharm Sci-Tech Co., Ltd., priority 2004, dated 2007) come the findings set out here.

Values after ≈ are worked out from the molar mass of the structure shown.

In data set [1] the test system is TJ899 (human glioma). The data set can be described thus: In vitro tumour cell growth inhibition (MTT), TJ899. In kind it is cell-based. To be noted: Table 2 experiment, 96 h. The procedure: (§1) Temozolomide (white powder), temozolomide acid (white powder) and temozolomide-8-carboxylate hexyl (white scale crystal) were made in house. For the estimation of in vitro tumour cell growth inhibition, MV3 (human melanoma), M14 (human melanoma), B16 and B16-BL6 (mouse melanoma), SHG-44, TJ899 and TJ905 (human glioma), MCF-7 (human breast), HCT-8 (human colon), A549 (human non small lung), Bel7402 (human hepatocellulor), and BGC-823 (human stomach) were used. All tumour cells were cultured in RPMI-1640 medium supplemented with 10% fetal bovine serum (FBS) at 37° C. in a humidified 5% CO2 incubator.
(§2) After being harvested from culture flasks, a cell suspension of 1×10^4/ml was made by using 1640 RPMI medium supplemented with 10% fetal bovine serum. 100 μl (contains 1000 tumour cells) of the cell suspension was seeded per well of 96-well flat-bottom Costar culture plates at 37° C. in a humidified 5% CO2 incubator for 24 hrs before introducing drugs. Each tested compounds was made for five different concentrations and 100 μl of the each concentration was introduced into parallel three wells; control wells were added with 100 μl of plain medium alone; fluorouracil (a chemotherapeutic antitumour drug) was used as the positive control. Cells were then incubated for 96 h. Proliferative response and cell death were determined using MTT (3-(4,5-dimethylthiazolyl)-2,5-diphenyl-tetrazolium bromide) assay.
(§3) MTT assay: Following incubation of cells with the tested compounds for 96 h, 100 μl of 0.4 mg/ml MTT in RPMI 1640 was added to each well and the plate was incubated at 37° C. for 4 h. The plate was then centrifuged and followed by removal of medium. 150 μl of DMSO was then added to dissolve formazan crystal. DMSO-added plates were placed on a plate shaker for 5 min and absorbance was measured spectrophotometrically at 540 nm (with reference wavelength at 450 nm) using a Benchmark microtiter plate reader (Bio-Rad 550, Bio-Rad Laboratories, CA, U.S.A.).
(§4) The IC50 was calculated from the curve of the tested compound concentrations against the inhibition rate of the tumour cells. Table 1 summarized the experiment results by using six human cancer cell lines, HCT-8 (colon carcinoma), A549 (non small lung carcinoma), MCF-7 (breast), Bel7402 (hepatocellulor carcinoma), BGC-823 (stomach adenocarcinoma), and MV3 (melanoma). Table 2 summarized the results from the experiment results by using two human melanoma cell lines, MV3 and M14, two mouse melanoma cell lines, B16 and B16-BL6, and three human glioma cell lines, TJ899, SHG-44 and TJ905.

The test system of data set [2] is SHG-44 (human glioma). The data set can be described thus: In vitro tumour cell growth inhibition (MTT), SHG-44. The class given is cell-based. To be noted: 96 h. As for the experimental part: as §1, §2, §3, §4
Data set [3] relates to M14 (human melanoma). The experiment in a line: In vitro tumour cell growth inhibition (MTT), M14. The class given is cell-based. To be noted: Table 2 experiment, 96 h. As for the experimental part: as §1, §2, §3, §4
Data set [4] relates to TJ905 (human glioma). The experiment in a line: In vitro tumour cell growth inhibition (MTT), TJ905. The class given is cell-based. To be noted: Table 2 experiment, 96 h. The procedure: as §1, §2, §3, §4
The test system of data set [5] is B16 (mouse melanoma). The experiment in a line: In vitro tumour cell growth inhibition (MTT), B16. In kind it is cell-based. Conditions: Table 2 experiment, 96 h. As for the experimental part: as §1, §2, §3, §4
Data set [6] concerns B16-BL6 (mouse melanoma). The experiment in a line: In vitro tumour cell growth inhibition (MTT), B16-BL6. Conditions: 96 h. In kind it is cell-based. The procedure:
as §1, §2, §3, §4

The test system of data set [7] is MV3 (human melanoma). The data set can be described thus: In vitro tumour cell growth inhibition (MTT), MV3. The class given is cell-based. Conditions: 96 h; for IC50: Homo sapiens. The procedure:
as §1, §2, §3, §4

Data set [8] concerns MCF-7 (human breast). The data set can be described thus: In vitro tumour cell growth inhibition (MTT), MCF-7. To be noted: MCF7, Table 1 experiment, 96 h. In kind it is cell-based. As for the experimental part:
as §1, §2, §3
(§5) The IC50 was calculated from the curve of the tested compound concentrations against the inhibition rate of the tumour cells. […]

The test system of data set [9] is HCT-8 (human colon). The data set can be described thus: In vitro tumour cell growth inhibition (MTT), HCT-8. In kind it is cell-based. To be noted: Table 1 experiment, 96 h. The procedure:
as §1, §2, §3, §5

For data set [10], the system named is Bel7402 (human hepatocellulor). The data set can be described thus: In vitro tumour cell growth inhibition (MTT), Bel-7402. The class given is cell-based. Conditions: Table 1 experiment, 96 h. The procedure: as §1, §2, §3, §5
Data set [11] has as its system A549 (human non small lung). The experiment in a line: In vitro tumour cell growth inhibition (MTT), A549. The class given is cell-based. Conditions: Table 1 experiment, 96 h. The procedure:
as §1, §2, §3, §5

Data set [12] relates to BGC-823 (human stomach). The data set can be described thus: In vitro tumour cell growth inhibition (MTT), BGC-823. In kind it is cell-based. Conditions: Table 1 experiment, 96 h. The procedure: as §1, §2, §3, §5
Data set [13] in a line: Solubility in 10% v/v propylene glycol. Conditions: ambient conditions, stirred 5 hours; for solubility at 5 h: 10% v/v propylene glycol aqueous solution, aqueous with cosolvent or surfactant or cyclodextrin, thermodynamic from solid, read-out: Solubility, Concentration. The class given is physicochemical. The procedure:
The potential of temozolomide esters used as topical and transdermal prodrugs is first proven through studies of their solubility. That is a decreased trend of solubility in an aqueous solution with increase of the length of the ester hydrocarbon alkyl chain of the temozolomide esters. It is clear the solubility constantly decreases from the methyl ester to the octyl ester, while temozolomide itself is 3.0 mg/ml similar to that of the methyl ester. […] Similarly to the esters, the solubility of the temozolomide amide products in the aqueous solution is considerably lower than that of temozolomide.
The solubility of temozolomide and the temozolomide esters was determined in 10% v/v propylene glycol by stirring an excess of the solid products at room temperature for 5 hours. The mixtures were then filtered, diluted with sample solvent and analysed using HPLC.

The nature of data set [14]: In vitro permeation, Franz diffusion cell, silicone membrane. The class given is in vitro ADME. To be noted: 37° C., 8 h. The source says: Jacketed Franz-type diffusion cells were used throughout the study and the barrier (12) (skin or silicone membrane) was mounted between the two chambers (14, 16) (2.8–3.4 cm^2 available surface area) with the dermal side in contact with the receiver solution (FIG. 2). The diffusion chambers (10) comprised a barrier of skin or silicone membrane (12) mounted between two chambers (14, 16). A cap (18) formed the donor compartment (14). The second receptor compartment (16) contained a receptor cell (20) with a stirring bar (22), sampling port (24) and cover (26). The stirring bar (22) was stirred by means of a magnet plate (28) having a rotating magnet. The receptor compartment comprised a water jacket (30) having a water inlet (32) and a water outlet (34).
Three types of materials were used in permeation studies. • 1. Silicone membrane (Silastic Medical Grade, 500-5, Dow Corning 0.005 in thick) was cut into circular sections (2 cm diameter) and washed with double distilled water prior to use. • 2. Full-thickness rat skin was obtained from Male Wistar rats aged 10 to 12 weeks and weighing 250 to 300 g, which were sacrificed by cervical dislocation, the abdomen shaved and the intact skin removed by dissection. Following removal of fat tissue, the skin was cut into circular pieces and used immediately. • 3. Samples of adult human epidermis were purchased from the Stephen Kirby Skin Bank (UK). The samples were from the leg, were stored at −18° C. and used within one week. Experiments
The membrane (as detailed above) was mounted on the diffusion cell (10), on which the surface area available for diffusion of each cell was about 2.8–3.4 cm^2. The cell cap (18) was placed on the membrane (12), and it was sealed with Parafilm® connecting the cell cap, membrane, and receptor cell. The capacity of each receptor cell was around 25–26 ml, which was filled with receptor solution and was completely in contact with the membrane sheet. During the course of experiment, the solution was continuously stirred by teflon-coated magnetic bar (22) placed in the cell (20). The temperature was maintained at 37° C. by a thermostatic water pump that circulated the water through the jacket (30) surrounding the cell body. The system was allowed to equilibrate under these conditions for half an hour. Finally, the prepared sample solution (2 ml) was added into the donor cap cell, and it was sealed with Parafilm® to minimize the evaporation of donor solution. 1 ml of receptor solution was removed every 30 minutes for 5 hours and then every 60 minutes for a further 3 hours. The volumes withdrawn were always replaced with equal volumes of fresh receptor solution to maintain constant volume. The concentration of each sample solution was determined by using HPLC.
For every sample, six determinations were performed on human and rat skin, and three determinations were carried out through artificial silicone membrane.
As stated above, after the removal of receptor solution, the receiver compartment was refilled with an identical volume of receptor fluid. This causes of the dilution of receptor solution leading to an under determination of the sample concentration. As a consequence, it was necessary to mathematically correct each successive sample concentrations, in the present invention, which was determined by applying the following equation:
[formula] where Ct is the actual current concentration of drug in the receptor phase at time t, Cmt is the apparent (i.e. measured) current concentration of drug in the receptor phase, Vs is the sample volume withdrawn for analysis, Vr is the volume of receptor solution, and ΣCm is the summed total of the previous measured concentrations.
Finally, the amount of drug penetrating the skin per unit area was calculated by dividing the obtained concentrations by the surface area available for diffusion cell and this value was different for each individual cell. […]

Take `O=NN(CCCl)C(=O)NCCCl` [Carmustine]: the IC50 (as a rule, the concentration that inhibits the measured activity by half) in data set [1] (Homo sapiens) turned out to be 54.2 µg/mL (≈ 253 µM); in data set [2] (Homo sapiens, SHG-44, Table 2 experiment), 7.2 µg/mL (≈ 33.6 µM); in data set [3] (Homo sapiens), 28.7 µg/mL (≈ 134 µM); in data set [4] (Homo sapiens), 67.3 µg/mL (≈ 314 µM); in data set [5] (Mus musculus) it was 7.75 µg/mL (≈ 36.2 µM); in [6] (Mus musculus, B16-BL6, Table 2 experiment) it was 13.1 µg/mL (≈ 61.3 µM). In data set [7] (Table 2 experiment (separate)), this molecule gave a half-maximal inhibitory concentration (IC50) of 6.35 µg/mL (≈ 29.7 µM).

As to `CN(C)/N=N/c1[nH]cnc1C(N)=O` [Darcabazine], the “IC50 TJ899” value in data set [1] was found to be 5.600 µg/mL (≈ 30.7 µM). In [2] (Table 2 experiment), the “IC50 SHG-44” value turned out to be 1.261 µg/mL (≈ 6.92 µM). Besides, in [3], the “IC50 M14” value came to 0.558 µg/mL (≈ 3.06 µM). Further, the “IC50 TJ905” value in data set [4] was 6.860 µg/mL (≈ 37.7 µM). Also, the “IC50 B16” value in data set [5] came out at 10.000 µg/mL (≈ 54.9 µM). The “IC50 B16-BL6” value in [6] (Table 2 experiment) worked out at 61.765 µg/mL (≈ 339 µM). Besides, the “IC50 MV3” value in data set [7] (Table 2 experiment (separate)) came out at 0.647 µg/mL (≈ 3.55 µM).

On to `O=c1[nH]cc(F)c(=O)[nH]1` [Fluorouracil, fluorouracil, reference compound], for which the IC50 in data set [8] is 0.629 µg/mL (≈ 4.84 µM); in data set [9], 0.606 µg/mL (≈ 4.66 µM); in [10] it was 0.495 µg/mL (≈ 3.81 µM); in [11], 0.126 µg/mL (≈ 0.969 µM); in [12] it was 0.722 µg/mL (≈ 5.55 µM); in data set [7] (Table 1 experiment), 0.427 µg/mL (≈ 3.28 µM).

Turning to `CCOC(=O)c1ncn2c(=O)n(C)nnc12` [Temozolomide ethyl ester, Ethyl 3,4-dihydro-3-methyl-4-oxoimidazo[5,1-d]-1,2,3,5-tetrazine-8-carboxylate], the solubility at 5 h in [13] came out at 2500 µg/mL (≈ 11200 µM). For the same molecule, the “Permeation through synthetic silicone membrane” value in data set [14] (FIGS. 3-5) is “can not pass through the synthetic membrane easily”.

Take `CC(C)NC(=O)c1ncn2c(=O)n(C)nnc12` [Temozolomide isopropyl amide, 3-Methyl-N-(iso-propyl)-4-oxoimidazo[5,1-d]-1,2,3,5-tetrazine-8-carboxamide]: in data set [13], the solubility at 5 h was found to be 2800 µg/mL (≈ 11900 µM).

For `CCCCOC(=O)c1ncn2c(=O)n(C)nnc12` [Temozolomide n-butyl ester, n-Butyl 3,4-dihydro-3-methyl-4-oxoimidazo[5,1-d]-1,2,3,5-tetrazine-8-carboxylate], the solubility at 5 h in [13] stood at 1400 µg/mL (≈ 5570 µM). Also, the “Permeation through synthetic silicone membrane” value in data set [14] (FIGS. 3-5) is “passed through the membrane far more efficiently”.

In the case of `CCCCCCCCOC(=O)c1ncn2c(=O)n(C)nnc12` [Temozolomide n-octyl ester, n-Octyl 3,4-dihydro-3-methyl-4-oxoimidazo[5,1-d]-1,2,3,5-tetrazine-8-carboxylate], the solubility at 5 h in data set [13] turned out to be 300 µg/mL (≈ 976 µM). In addition, the “Permeation through synthetic silicone membrane” value in [14] (FIGS. 3-5, listed as n-octyl ester) was “passed through the membrane far more efficiently”; in data set [14] (FIGS. 3-5, listed as octyl ester), “significantly less than the hexyl ester”.

With `CCCOC(=O)c1ncn2c(=O)n(C)nnc12` [Temozolomide n-propyl ester, n-Propyl 3,4-dihydro-3-methyl-4-oxoimidazo[5,1-d]-1,2,3,5-tetrazine-8-carboxylate], in [13], the solubility at 5 h amounted to 2000 µg/mL (≈ 8430 µM). In [14] (FIGS. 3-5), the “Permeation through synthetic silicone membrane” value is recorded as “passed through the membrane far more efficiently”.

As for `CCC(C)NC(=O)c1ncn2c(=O)n(C)nnc12` (centres unmarked) [Temozolomide sec-butyl amide], the “Solubility, Concentration” value in [13] is 1800 µg/mL (≈ 7190 µM).

`Cn1nnc2c(C(=O)NC(C)(C)C)ncn2c1=O` [Temozolomide t-butyl amide, 3-Methyl-N-(tert-butyl)-4-oxoimidazo[5,1-d]-1,2,3,5-tetrazine-8-carboxamide]: in data set [13], the solubility at 5 h is 1400 µg/mL (≈ 5590 µM).
